The text below walks through data of paper PMC7870846, “Incorporation of sensing modalities into de novo designed fluorescence-activating proteins” (Nature Communications, 2021).

For data set [1], the target named is T1, mFAP_pH.
T1 construct: de novo designed beta-barrel; large-scale protein purification
Put plainly: Fluorescence titration of DFHBI into 500 nM protein in Na2HPO4-citrate buffer with 143 mM NaCl at pH 7.34 (excitation 483 nm, emission 503 nm), fit to a single-binding site isotherm. Conditions: read-out: affinities (Kd values), phenolate form of DFHBI. How it is done:
(§1) In measuring the protonated (phenolic) and deprotonated (phenolate) DFHBI affinities with mFAP_pH (Supplementary Fig. 5c), fluorescence endpoints were measured on a Synergy Neo2 hybrid multi-mode reader (BioTek) in flat bottom, black polystyrene, non-binding surface 96-well microplates (Corning 3650). mFAP_pH was produced by large-scale protein purification[49] and aliquoted to 200 μL final volumes at 500 nM final concentration in seven serial dilutions ( 10 dilution factor) of DFHBI starting from 10.0 μM DFHBI final concentration, including an eighth condition without chromophore, in Na2HPO4-citrate buffer supplemented with 143 mM NaCl final concentration at either pH 3.61 or pH 7.34. For pH 3.61 fluorescence was excited at λex = 379 nm and fluorescence emission measured at λem = 498 nm, and for pH 7.34 fluorescence was excited at λex = 483 nm and fluorescence emission measured at λem = 503 nm. At each pH, background fluorescence endpoints of wells with identical chromophore concentrations but purified protein replaced with an identical volume of buffer were measured, and fluorescence endpoints subtracted from those measured with protein. Background-subtracted data were normalized from 0 to 1 and fit to a single-binding site isotherm function using non-linear least squares fitting to obtain the reported Kd values, which were less than the protein concentrations tested.

Data set [2] addresses T2, mFAP2a.
T2 construct: de novo designed beta-barrel; large-scale purification and SEC
Put plainly: Fluorescence titration of DFHBI or DFHBI-1T into 20.0 nM purified protein in high-salt Tev cleavage buffer (25.0 mM Tris, 100 mM NaCl, pH 8.00), excitation 468 nm and emission 530 nm, means of eight technical replicates fit to a single-binding site isotherm. As to conditions: n = 8. An excerpt:
(§2) Fig. 1 Characterization of brighter and chromophore-specific mFAPs. a Computational model of de novo designed β-barrel variant mFAP2b showing protein backbone (cartoon) and bound DFHBI chromophore (sticks). b, c Chemical structures of DFHBI and DFHBI-1T, respectively. d, e In vitro titration of d DFHBI or e DFHBI-1T with mFAP2 (gray), mFAP2b (lime), mFAP2a (violet), and mFAP10 (pink) proteins. Error bars represent s.d. of the mean of eight technical replicates. […] The images (left) are the pseudocolored normalized fluorescence intensity per pixel. Scale bars represent 10 microns. Imaging was independently repeated twice with similar results. The computational models (right) show the residues unique to mFAP2b (V13, M15) (lime sticks) or mFAP2a (A13, F15) (violet sticks). Intermolecular hydrogen bonds to the chromophore are shown as black dotted lines. […] Source data is available for Fig. 1f–i.
(§3) Fluorescence endpoints were measured on a Synergy Neo2 hybrid multi-mode reader (BioTek) in flat bottom, black polystyrene, non-binding surface 96-well microplates (Corning 3650). In measuring chromophore-binding affinities (Fig. 1d, e), mFAP2, mFAP2a, and mFAP2b, and mFAP10 were produced by large-scale protein purification and SEC purification. Proteins were aliquoted in eight technical replicates in 200 μL final volumes to 20.0 nM final concentration in ten serial dilutions ( 10 dilution factor) of DFHBI starting from 31.6 μM DFHBI or 31.6 μM DFHBI-1T final concentrations, including an eleventh condition without chromophore. Fluorescence was excited at λex = 468 nm and fluorescence emission measured at λem = 530 nm. Background fluorescence endpoints of wells with identical chromophore concentrations but purified protein replaced with an identical volume of high-salt Tev cleavage buffer were measured, and fluorescence endpoints subtracted from those measured with protein. Background-subtracted data were averaged and the means normalized from 0 to 1 and fit to a single-binding site isotherm function using non-linear least squares fitting to obtain a fitted Kd value (Table 1), and the fit scaled to the maximum mean value (Fig. 1d, e).

Data set [3] has as its target T3, mFAP2b.
T3 construct: de novo designed beta-barrel; large-scale purification and SEC
The description is as above. Conditions: n = 8.
Text: as §2, §3

The target in data set [4] is T4, mFAP10.
T4 construct: de novo designed beta-barrel; large-scale purification and SEC
The data set is described as above. Conditions: n = 8.
Text: as §2, §3

Data set [5] concerns the target T1, mFAP_pH. Description: Fluorescence titration of DFHBI into 500 nM protein in Na2HPO4-citrate buffer with 143 mM NaCl at pH 3.61 (excitation 379 nm, emission 498 nm), fit to a single-binding site isotherm. Conditions: read-out: affinities (Kd values), phenolic form of DFHBI. How it is done: as §1
The conditions of data set [6]: cited from earlier work.
A short description of data set [7]: pH-dependent fluorescence assays (pH titration). Format: biochemical. As to conditions: from pH 8.38 to pH 4.79. How it is done: In measuring pH-dependent fluorescence (Fig. 3d–i), Na2HPO4-citrate buffer supplemented with 150 mM NaCl at unique pH values were produced via mixing various volumes of 100 mM citric acid (Sigma Aldrich), 200 mM Na2HPO4 (Sigma Aldrich), and 2.00 M NaCl, and final pHs quantified via an Accumet AB15 Basic pH meter (Fisher Scientific). pHRed and pHluorin2 were produced via large-scale protein purification, 6xHis-tag removal and size-exclusion chromatography (SEC) purification, and mFAP_pH and mFAP2b were produced via large-scale protein purification and SEC purification. pH-dependent fluorescence was measured at […] final protein concentration for mFAP2b, mFAP_pH and pHRed, and 170 nM final concentration for pHluorin2, at each pH in technical triplicate in 200 μL final volumes per well. […] In measuring fluorescence excitation spectra at each pH (Fig. 3d), excitation wavelengths were set to the range λex = 300–530 nm and fluorescence emission measured at λem = 562 nm. In measuring pH-dependent fluorescence excitation spectra at pH 3.76 and pH 7.34 (Fig. 3f, g), excitation spectra were measured using excitation wavelengths in the range λex = 300–540 nm and emission wavelength λem = 592 nm. […]

The subject of data set [8] is SERCA pumps. Put plainly: Pharmacological inhibition of SERCA Ca2+ pumps in cardiomyocytes. As to conditions: 20.0 µM final; 3.00 µM DFHBI. In kind it is cell-based, human. How it is done:
Pharmacological inhibition of SERCA Ca^2+ pumps: Cardiomyocytes in 2.0 mL of Tyrode’s solution labeled with 3.00 µM DFHBI were imaged at 2 Hz for 30 min with an sCMOS camera (Photometrics Prime95B) and 20x magnification lens (Leica HCX PL FLUOTAR L 20x/0.40 NA CORR). A stock solution of 20.0 mM cyclopiazonic acid (CPA) (Tocris, 1235) in 100% anhydrous DMSO was prepared. Two milliliters of Tyrode’s solution containing 3.00 µM DFHBI and 40.0 µM CPA was administered at ~10 min from initial image acquisition to inhibit SERCA pumps and disrupt Ca^2+ recovery into the SR after contraction. Fluorescence fold-change over the whole field of view in each frame was calculated by Eq. (11), where F is the fluorescence per frame, and F0 is the fluorescence at the first frame (Supplementary Fig. 19c).

Marks after values point to notes of the source that are not given here.

Regarding `CC1=N/C(=C\c2cc(F)c(O)c(F)c2)C(=O)N1C` [DFHBI], the Kd is around 0.16 µM in data set [1]; 0.15 ± 0.011 µM in data set [2]; 1.8 ± 0.25 µM in data set [3]; 0.017 ± 0.0079 µM in data set [4]; around 0.19 µM in data set [5].

For the compound `CC1=N/C(=C\c2cc(F)c(O)c(F)c2)C(=O)N1CC(F)(F)F` [DFHBI-1T, (Z)-4-(3,5-difluoro-4-hydroxybenzylidene)-2-methyl-1-(2,2,2-trifluoroethyl)-1H-imidazol-5(4H)-one], the Kd in data set [2] came to 5.8 ± 0.86 µM; in data set [3], 11 ± 3.1 µM; in data set [4] it was 0.045 ± 0.0065 µM.

Turning to `CC1=N/C(=C\c2cc(F)c(O)c(F)c2)C(=O)N1CC(F)(F)F` [DFHBI-1T, (Z)-4-(3,5-difluoro-4-hydroxybenzylidene)-2-methyl-1-(2,2,2-trifluoroethyl)-1H-imidazol-5(4 H)-one], the Reported quantum yield in data set [6] is reported as 0.00098^e.

For the compound “pHRed: previously reported pH sensor protein [reference compound]”, the “fold-change in ratiometric fluorescence (Fratio)” value in data set [7] is reported as ~ 34 fold.

In the case of `CC1=N/C(=C\c2cc(F)c(O)c(F)c2)C(=O)N1C` [DFHBI, 3,5-difluoro-4-hydroxybenzylidene imidazolinone], in data set [6], the Absolute quantum yield was 0.001^f and the Reported quantum yield is 0.0007^e. Besides, the pKa in data set [6] (free, unbound in solution) is given as ~ 5.4.

Take `CC(=O)C1=C(O)[C@@H]2[C@H]3c4c[nH]c5cccc(c45)C[C@H]3C(C)(C)N2C1=O` [cyclopiazonic acid]: the “effect on SR fluorescence of EF1n_mFAP2b sensor” value in data set [8] was “sustained increase in fluorescence in the SR”.
